# Molecular target: T1, human-KAT6A (MYST domain 507-778 aa) (Homo sapiens, UniProt Q92794)
# T1 construct: human-KAT6A (MYST domain 507-778 aa)
# Experiment: KAT6A biochemical assay (TR-FRET)
# Conditions: for inhibition at 1 µM: compound at 1 μM, percent inhibition of internal assay controls
# Source text: A TR-FRET based method was used for assaying compounds of the invention for KAT6A enzyme inhibitory activity. TR-FRET is homogeneous proximity assay where Europium-labelled anti-acetyl lysine antibody binds to the acetylated substrate labelled with biotin which in turn binds to streptavidin labelled APC fluorescence acceptor. Europium can transfer energy to APC in the complex and the interaction of two dye-labelled binding partners is detected by the energy transfer between a donor and an acceptor dye, and the subsequent light emission by the acceptor dye. KAT6A transfer an acetyl group from acetyl CoA to lysine amino acids of histones/target proteins. Typically, 5 μL of human-KAT6A (MYST domain 507-778 aa) in assay buffer (100 mM Tris HCl (pH 7.8), 15 mM NaCl, 1 mM EDTA, 0.01% Tween-20, 0.02% BSA, 1 mM DTT) is added to a 384-well plate containing 5 μL of selected test compound in final 1% DMSO, serially diluted in 1:3 in an 8-10-point titration. The selected compound of the present invention and enzyme are incubated for 30 min at room temperature. Next, 5 μL of substrate mix containing histone H4 peptide and acetyl-CoA in assay buffer is added to the plate. The final concentrations of H4 peptide and acetyl-CoA are 200 nM and 600 nM respectively. Following 30 min reaction at room temperature, 5 μL of detection mix containing Europium labelled anti-acetyl antibody and streptavidin-APC is added to the reaction wells. Plate is further incubated for 45 min at room temperature and is read in TR-FRET mode (Ex: 340 nm; Em: 615 nm and 665 nm) on a plate reader.
# Selected compounds of the present invention were screened in the above-mentioned assay procedure and IC50 values were determined by fitting the dose-response data to sigmoidal curve fitting equation using Graph pad prism software V8. […]
# T1 sequence (Q92794 507-778): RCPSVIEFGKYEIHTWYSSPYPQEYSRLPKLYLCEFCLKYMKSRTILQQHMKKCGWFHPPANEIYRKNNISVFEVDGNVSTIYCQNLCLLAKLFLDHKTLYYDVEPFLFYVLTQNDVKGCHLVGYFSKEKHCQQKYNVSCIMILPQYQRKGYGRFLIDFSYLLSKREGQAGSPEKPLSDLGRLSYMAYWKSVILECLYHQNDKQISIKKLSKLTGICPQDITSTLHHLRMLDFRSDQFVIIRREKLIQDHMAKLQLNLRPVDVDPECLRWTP
inhibition at 1 µM,"IC50 (dose-response, sigmoidal curve fit, groups A, B, C)",Compound
13%,,"COc1cccc(OC)c1S(=O)(=O)Nc1noc2ncccc12 [Compound 24, N-(isoxazolo[5,4-b]pyridin-3-yl)-2,6-dimethoxybenzenesulfonamide]"
12%,,"COc1cccc(OC)c1S(=O)(=O)Nc1noc2cc(-c3ccccc3)ncc12 [Compound 11, 2,6-dimethoxy-N-(6-phenylisoxazolo[4,5-c]pyridin-3-yl)benzenesulfonamide]"
25%,,"COc1cc(-c2ccccc2)nc2onc(NS(=O)(=O)c3ccccc3OC(F)(F)F)c12 [Compound 7, N-(4-methoxy-6-phenylisoxazolo[5,4-b]pyridin-3-yl)-2-(trifluoromethoxy)benzenesulfonamide]"
54%,,"COc1cccc(OC)c1S(=O)(=O)Nc1noc2nc(N3CCCCC3)cc(OC)c12 [Compound 12, 2,6-dimethoxy-N-(4-methoxy-6-(piperidin-1-yl)isoxazolo[5,4-b]pyridin-3-yl)benzenesulfonamide]"
,< 100 nM,"CCc1ccc(OC)c(S(=O)(=O)Nc2noc3nc(-c4ccccc4)cc(OC)c23)c1 [Compound 33, 5-ethyl-2-methoxy-N-(4-methoxy-6-phenylisoxazolo[5,4-b]pyridin-3-yl)benzenesulfonamide]"

# From patent US20240254139A1, “FUSED ISOXAZOLYL COMPOUNDS AS KAT6A INHIBITORS” (Aurigene Oncology Limited, priority 2021, published 2024)
